Source: patent US20070167499A1, “Biaryl linked hydroxamates: preparation and pharmaceutical applications” (A*BIO Pte Ltd., priority 2003, published 2007)
Read-outs that look alike come from different tables or passages of the source.

Columns and labels:
HDAC1 enzyme (GST-HDAC1) = biological target: T1, HDAC1 enzyme (GST-HDAC1) (Homo sapiens, UniProt Q13547); assay: In vitro HDAC assay for determination of IC50 values (BIOMOL fluorescent-based HDAC activity assay), HDAC1; format: biochemical; conditions: 600 nM HDAC1 enzyme, 500 μM Flur de lys generic substrate, room temperature 2 h
T1 construct: Amplification of human HDAC1 and HDAC8 coding region from this cDNA library; made in house; host or cells: SF9 insect cells (baculovirus, pDEST20 vector)
T1 sequence (Q13547 whole entry): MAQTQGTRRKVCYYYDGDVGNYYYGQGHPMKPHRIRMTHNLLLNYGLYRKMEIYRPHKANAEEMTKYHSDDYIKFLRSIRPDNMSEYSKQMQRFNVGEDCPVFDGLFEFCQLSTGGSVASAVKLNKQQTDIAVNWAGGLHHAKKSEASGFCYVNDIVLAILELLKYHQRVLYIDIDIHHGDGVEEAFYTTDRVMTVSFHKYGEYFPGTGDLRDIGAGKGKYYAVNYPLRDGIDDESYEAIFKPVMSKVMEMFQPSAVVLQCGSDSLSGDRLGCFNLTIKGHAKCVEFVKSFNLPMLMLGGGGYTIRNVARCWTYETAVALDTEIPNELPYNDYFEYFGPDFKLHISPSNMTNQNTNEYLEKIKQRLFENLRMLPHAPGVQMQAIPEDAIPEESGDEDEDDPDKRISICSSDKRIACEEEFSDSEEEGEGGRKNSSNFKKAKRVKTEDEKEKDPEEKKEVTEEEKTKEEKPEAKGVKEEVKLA
Experimental: (§1) Recombinant GST-HDAC1 and GST-HDAC-8 Protein expression and purification
(§2) Human cDNA library was prepared using cultured SW620 cells. Amplification of human HDAC1 and HDAC8 coding region from this cDNA library was cloned separately into the baculovirus expression pDEST20 vector and pFASTBAC vector respectively (GATEWAY Cloning Technology, Invitrogen Pte Ltd). The pDEST20-HDAC1 and pFASTBAC-HTGST-HDAC8 constructs were confirmed by DNA sequencing. Recombinant baculovirus was prepared using the Bac-To-Bac method following the manufacturer's instruction (Invitrogen Pte Ltd). Baculovirus titer was determined by plaque assay to be about 10^8 PFU/ml.
(§3) Expression of GST-HDAC1 or HTGST-HDAC8 was done by infecting SF9 cells (Invitrogen Pte Ltd) with pDEST20-HDAC1 or pFASTBAC-GST-HDAC8 baculovirus at MOI=1 for 48 h. Soluble cell lysate was incubated with pre-equilibrated Glutathione Sepharose 4B beads (Amersham) at 4° C. for 2 h. The beads were washed with PBS buffer for 3 times. The GST-HDAC1 protein or GST-HDAC8 protein was eluted by elution buffer containing 50 mM Tris, pH8.0, 150 mM NaCl, 1% Triton X-100 and 10 mM or 20 mM reduced Glutathione. The purified GST-HDAC1 protein or purified GST-HDAC8 protein was dialyzed with HDAC storage buffer containing 10 mM Tris, pH7.5, 100 mM NaCl and 3 mM MgCl2. 20% Glycerol was added to purified GST-HDAC1 protein or purified GST-HDAC8 before storage at −80° C.
(§4) In vitro HDAC assay for determination of IC50 values
The assay has been carried out in 96 well format and the BIOMOL fluorescent-based HDAC activity assay has been applied. The reaction composed of assay buffer, containing 25 mM Tris pH 7.5, 137 mM NaCl, 2.7 mM KCl, 1 mM MgCl2, 1 mg/ml BSA, tested compounds, 500 nM HDAC8 enzyme or 600 nM HDAC1 enzyme, 200 μM Flur de lys p53 peptide substrate for HDAC8 enzyme or 500 μM Flur de lys generic substrate for HDAC1 enzyme and subsequently was incubated at room temperature for 2 h. Flur de lys Developer was added and the reaction was incubated for 10 min. Briefly, deacetylation of the substrate sensitizes it to the developer, which then generates a fluorophore The fluorophore is excited with 360 nm light and the emitted light (460 nm) is detected on a fluorometric plate reader (Tecan Ultra Microplate detection system, Tecan Group Ltd.).
(§5) The analytical software, Prism 3.0® (GraphPad Software Inc) has been used to generate IC50 from a series of data.

HDAC8 enzyme (GST-HDAC8) = biological target: T2, HDAC8 enzyme (GST-HDAC8) (Homo sapiens, UniProt Q9BY41); assay: In vitro HDAC assay for determination of IC50 values (BIOMOL fluorescent-based HDAC activity assay), HDAC8; format: biochemical
T2 construct: Amplification of human HDAC1 and HDAC8 coding region from this cDNA library; made in house; host or cells: SF9 insect cells (baculovirus, pFASTBAC vector)
T2 sequence (Q9BY41 1-377): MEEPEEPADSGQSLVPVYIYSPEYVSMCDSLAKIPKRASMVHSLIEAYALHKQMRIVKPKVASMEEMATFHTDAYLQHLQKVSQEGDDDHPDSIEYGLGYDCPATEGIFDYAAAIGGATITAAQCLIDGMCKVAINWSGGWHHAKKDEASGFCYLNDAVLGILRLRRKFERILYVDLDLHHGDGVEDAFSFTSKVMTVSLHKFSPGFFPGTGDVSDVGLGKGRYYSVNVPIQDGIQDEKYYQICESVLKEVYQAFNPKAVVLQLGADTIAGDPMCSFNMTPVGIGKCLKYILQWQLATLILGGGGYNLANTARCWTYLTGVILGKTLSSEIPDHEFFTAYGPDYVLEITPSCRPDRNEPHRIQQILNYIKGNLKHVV
Experimental: as §1
as §2, with “The pDEST20-HDAC1 and pFASTBAC-HTGST-HDAC8 constructs were confirmed by DNA sequencing.” left out, “Ltd).” for “Ltd). Baculovirus titer was determined by plaque assay to be about 10^8 PFU/ml.”
as §3, §4
The assay has been carried out in 96 well format and the BIOMOL fluorescent-based HDAC activity assay has been applied. […] Flur de lys Developer was added and the reaction was incubated for 10 min. Briefly, deacetylation of the substrate sensitizes it to the developer, which then generates a fluorophore The fluorophore is excited with 360 nm light and the emitted light (460 nm) is detected on a fluorometric plate reader (Tecan Ultra Microplate detection system, Tecan Group Ltd.).
as §5

NCI H552 = assay: Cell-based proliferation assay for determination of GI50 values, lung cancer cell line; conditions: Homo sapiens; 96 h treatment, cyquant cell proliferation assay; read-out: Cellular activities GI50, NCI H552
Experimental: Cell-based Proliferation assay for determination of GI50 values
Three different cancer cell lines were obtained from ATCC: Human colon cancer cell line (Colo205), human breast cancer cell lines (MDA-MB435), and human lung cancer cell line (NCl-H522). Colo205 cells and NCl-H522 were cultivated in RPMI 1640 containing 2 mM
L-Glutamine, 5% FBS, 1.0 mM Na Pyruvate. MDA-MB435 cells were cultivated in DMEM containing 2 mM L-Glutamine, 5% FBS. Colo205 cells were seeded in 96-wells plate at 2000 and 5000 cells per well respectively. MDA-MB435 and NCl-H522 cells were seeded in 96-wells plate at 6000 cells per well. The plates were incubated at 37° C., 5% CO2, for 24 h. Cells were treated with compounds at various concentrations for 96 h. Cell growth was then monitored using cyquant cell proliferation assay (Invitrogen Pte Ltd). Dose response curves were plotted to determine GI50 values for the compounds using XL-fit (ID Business Solution, Emeryville, Calif.).

[1] = 500 nM HDAC8 enzyme, 200 μM Flur de lys p53 peptide substrate, room temperature 2 h, read-out: HDAC8 Enzyme Activity, IC50

| SMILES | IC50 (HDAC1 enzyme (GST-HDAC1)) | IC50 (HDAC8 enzyme (GST-HDAC8); [1]) | GI50 (NCI H552) | IC50 (HDAC8 enzyme (GST-HDAC8)) |
| --- | --- | --- | --- | --- |
| Nc1nc(-c2ccc(/C=C/C(=O)NO)cc2)cs1 [Example 23, 3-[4-(2-Amino-thiazol-4-yl)-phenyl]-N-hydroxy-acrylamide] | 510 nM | 100 nM | 13300 nM | – |
| O=C(Cc1ccc(-c2csc(NC(=O)Cc3ccccc3)n2)s1)NO [Example 1, N-Hydroxy-2-[5-(2-phenylacetylamino-thiazol-4-yl)-thiophen-2-yl]-acetamide] | > 100000 nM | – | 2360 nM | 41 nM |
| O=C(NO)c1ccc(-c2ccc(CNCCc3ccccc3)cc2)s1 [Example 26, 5-[4-(Phenethylamino-methyl)-phenyl]-thiophene-2-carboxylic acid hydroxyamide] | 66 nM | 16 nM | – | – |
| O=C(NO)c1ccc(-c2ccc(CNCCc3ccccn3)cc2)s1 [Example 27] | 200 nM | 120 nM | – | – |
